Measured values: patent publication US8637246B2, “BRAF mutations conferring resistance to BRAF inhibitors” (Dana-Farber Cancer Institute, Inc., priority 2010, dated 2014)

Assays:
BRAF V600E-P686Q = BRAF V600E-P686Q (Homo sapiens, UniProt P15056, P686Q/V600E); test: Western blot of p-MEK1/2 and p-ERK1/2 in transfected 293T cells (BRAF V600E-P686Q); type: cell-based; details: 293T cells transfected with BRAF V600E-P686Q; 0, 0.08, 0.4, 2, 5 and 10 μM for 16 hours; immunoblot (FIG. 8)
Protocol: (§1) 293T cells were transfected with 6 μg of pWZL(BLAST)-BRAF for each putative resistance allele and subsequently treated with a range of concentrations of the BRAF(V600E) inhibitor PLX4720 (0, 0.08, 0.4, 2, 5 and 10 μM) for 16 hours. Immunoblot studies were performed using standard procedures. Briefly, the treated cells were lysed with TNN buffer containing protease inhibitor (Roche), NaF and NaVO3 (1 mM each). Lysates were quantified (Bradford assay), denatured (95° C.), and resolved by SDS gel electrophoresis. Proteins was transferred to nitrocellulose membranes and probed with primary antibodies recognizing BRAF (Santa Cruz; 1:10,000 dilution), p-ERK1/2, p-MEK1/2 (Ser-217/221), and α-tubulin (Cell Signaling Technology; 1:1,000 dilution). After incubation with the appropriate secondary antibody (anti-rabbit or anti-mouse IgG, HRP-linked; 1:1,000 dilution) (Cell Signaling Technology), proteins were detected using chemiluminescence (Pierce).

BRAF-V600E-T521K = BRAF-V600E-T521K (Homo sapiens, UniProt P15056, T521K/V600E); test: Western blot of p-MEK1/2 and p-ERK1/2 in transfected 293T cells (BRAF-V600E-T521K); type: cell-based; details: 293T cells transfected with BRAF-V600E-T521K; 0, 0.08, 0.4, 2, 5 and 10 μM for 16 hours; immunoblot (FIG. 8)
Sequence of BRAF-V600E-T521K (P15056 whole entry T521K/V600E): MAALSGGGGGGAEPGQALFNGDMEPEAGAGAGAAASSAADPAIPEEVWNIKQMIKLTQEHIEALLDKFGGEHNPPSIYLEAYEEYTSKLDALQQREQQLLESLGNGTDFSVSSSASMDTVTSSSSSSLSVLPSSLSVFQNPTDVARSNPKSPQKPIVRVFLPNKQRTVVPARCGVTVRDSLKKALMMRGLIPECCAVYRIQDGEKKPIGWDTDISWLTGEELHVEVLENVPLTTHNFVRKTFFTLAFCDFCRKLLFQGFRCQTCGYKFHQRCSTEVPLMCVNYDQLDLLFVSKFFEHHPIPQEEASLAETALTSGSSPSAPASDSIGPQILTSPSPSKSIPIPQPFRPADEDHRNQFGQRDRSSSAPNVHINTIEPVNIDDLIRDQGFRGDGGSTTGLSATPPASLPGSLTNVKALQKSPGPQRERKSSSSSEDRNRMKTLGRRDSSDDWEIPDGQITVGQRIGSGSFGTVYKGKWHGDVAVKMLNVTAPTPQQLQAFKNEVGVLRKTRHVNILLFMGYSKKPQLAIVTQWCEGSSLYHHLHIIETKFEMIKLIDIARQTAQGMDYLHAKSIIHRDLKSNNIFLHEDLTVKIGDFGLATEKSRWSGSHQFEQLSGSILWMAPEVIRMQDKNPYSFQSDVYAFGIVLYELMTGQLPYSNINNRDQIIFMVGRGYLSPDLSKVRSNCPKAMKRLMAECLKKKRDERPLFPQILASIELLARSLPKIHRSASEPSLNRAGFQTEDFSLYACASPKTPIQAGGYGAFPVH
Protocol: as §1

[1] = tested on: A375 cells expressing a mutant BRAF polypeptide; details: A375 cells expressing a mutant BRAF polypeptide with one or more listed resistance mutations (A29V ... C748F)
[2] = tested on: A375 cells expressing a wild-type BRAF polypeptide

Sequence of BRAF V600E-P686Q (P15056 whole entry V600E/P686Q): as the sequence (P15056 whole entry T521K/V600E) above, with K521T, P686Q counted along it

Structure (SMILES)	increase in phosphorylated MEK1/2 and ERK1/2 in the presence of increasing concentrations of inhibitor (BRAF V600E-P686Q)	increase in phosphorylated MEK1/2 and ERK1/2 in the presence of increasing concentrations of inhibitor (BRAF-V600E-T521K)	sensitivity of cells to the RAF inhibitor [1]	sensitivity of cells to the RAF inhibitor [2]
CCCS(=O)(=O)Nc1ccc(F)c(C(=O)c2c[nH]c3ncc(Cl)cc23)c1F [PLX4720]	sustained	sustained	–	–
Cn1c(Nc2ccc(C(F)(F)F)cc2)nc2cc(Oc3ccnc(-c4ncc(C(F)(F)F)[nH]4)c3)ccc21 [RAF-265]	–	–	resistant	sensitive
